In patent US20240101548A1, “HYDROXAMATE COMPOUND, PREPARATION METHOD THEREFOR AND APPLICATION THEREOF” (SHENZHEN CHIPSCREEN BIOSCIENCES CO., LTD., priority 2020, published 2024) one finds IC50 data, which are given here for 21 molecules.

SMILES strings stand for the structures.

Test [1] has as its system EPO-induced JAK2 signal pathway. Put plainly: EPO-induced proliferation of UT-7 cells (JAK2 signal). It is filed as cell-based, human. To be noted: Homo sapiens, UT7; UT-7 cell proliferation, EPO 10 ng/mL, 72 hours; read-out: Inhibition activity IC50 on EPO-induced JAK2 signal pathway. The method, then:
The cytokine EPO, i.e. erythropoietin, can promote the proliferation and division of erythroid progenitor cells, and the signal pathway induced by EPO coupling with its receptor is mediated by JAK2-STAT5.
Human promegakaryocytic leukemia cell line UT-7 was commercially available from Cell Resource Center, Institute of Basic Medicine, Chinese Academy of Medical Sciences. The culture medium was RPIM1640 containing 10% FBS, and EPO was added for a final concentration of 10 ng/mL.
The inhibition rate of the tested compound on EPO-induced cell proliferation was calculated using Microsoft Excel.
UT-7 cell line was inoculated in 96-well plate with flat bottom at 15000 cells per well, each well was added with 10 ng/mL of human recombinant EPO (Human EPO PEPROTECH 100-64-10UG), along with tested compound respectively for a final concentration of 0, 100, 1000 or 10000 nM. After culture at 37° C. and 5% CO2 for 72 hours, alamarBlue™ Cell Viability Reagent was added to each well following the instructions. After incubation at 37° C. for color reaction, the fluorescence value at Ex530/Em590 was detected using Tecan Spark™ 10M multimode microplate reader.
The well in which neither compound nor cytokine was added was designated as […], and the fluorescence value in the wells in which the final concentration of compound was 0 was designated as 100 control. The inhibition activity […] ofthe tested compound on JAK2 could be calculated from the inhibition rate ofthe tested compound on EPO-induced cell proliferation at different doses.

Test [2] has as its system IL-2-induced JAK1/JAK3 signal pathway. Put plainly: IL-2-induced proliferation of KHYG-1 cells (JAK1/JAK3 signal). The conditions noted are these: Homo sapiens; KHYG-1 cell proliferation, IL-2 10 ng/mL, 72 hours; read-out: Inhibition activity IC50 on IL-2-induced JAK1/JAK3 signal pathway. Format: cell-based, human. The text has this:
The main physiological function of cytokine IL-2 is to stimulate and maintain the proliferation and differentiation of T cells. Generally, IL-2 dependent T cells cannot survive in in-vitro culture for a long time, but the addition of IL-2 can make them continue to proliferate. The signal pathway induced by IL-2 coupling with its receptor is mediated by JAK1/JAK3-STAT5, so the inhibitor of JAK1 and/or JAK3 can inhibit the proliferation of IL-2 dependent cells.
Human natural killer cell lymphoma cell line KHYG-1 was commercially available from Health Science Research Resources Bank (HSRRB), and relevant culture conditions referred to those from HSRRB.
The inhibition rate of the tested compound on IL-2-induced cell proliferation was calculated using Microsoft Excel.
After culture at 37° C. and 5% CO2 for 72 hours, alamarBlue™ Cell Viability Reagent was added to each well following the instructions.
The well in which neither compound nor cytokine was added was designated as 0% control well, and the fluorescence value in the wells in which the final concentration of compound was 0 was designated as 100% control. The inhibition activity […] of the tested compound on JAK1/JAK3 could be calculated from the inhibition rate of the tested compound on IL-2-induced cell proliferation at different doses.

For `CONC(=O)c1cnc(Nc2cccc(F)n2)cc1Nc1cccc(Cl)c1N(C)S(C)(=O)=O` [Example 76, 4-((3-chloro-2-(N-methylmethanesulfonamido)phenyl)amino)-6-((6-fluoropyridin-2-yl)amino)-N-methoxy nicotinamide], the IC50 in test [1] and in test [2] was more than 10 µM in each case.

Turning to `CONC(=O)c1cnc(Nc2ccc(F)cn2)cc1Nc1cccc(Cl)c1N(C)S(C)(=O)=O` [Example 77, 4-((3-chloro-2-(N-methylmethanesulfonamido)phenyl)amino)-6-((5-fluoropyridin-2-yl)amino)-N-methoxy nicotinamide], the IC50 in test [1] and in test [2] was more than 10 µM throughout.

Turning to `CONC(=O)c1cnc(Nc2cccnc2OC)cc1Nc1cccc(Cl)c1N(C)S(C)(=O)=O` [Example 78, 4-((3-chloro-2-(N-methylmethanesulfonamido)phenyl)amino)-N-methoxy-6-((2-methoxypyridin-3-yl)amino)nicotinamide], the IC50 in test [1] and in test [2] was more than 10 µM throughout.

In the case of `CONC(=O)c1cnc(NC(=O)C2CC2)cc1Nc1cccc(C(F)(F)F)c1N(C)S(C)(=O)=O` [Example 82, 6-(cyclopropylcarboxamido)-N-methoxy-4-((2-(N-methylmethanesulfonamido)-3-(trifluoromethyl)phenyl)amino)nicotinamide], the IC50 in test [1] and in test [2] was more than 10 µM in each case.

As to `CONC(=O)c1cnc(Nc2cccc(F)n2)cc1Nc1cccc(C(F)(F)F)c1N(C)S(C)(=O)=O` [Example 83, 6-((6-fluoropyridin-2-yl)amino)-N-methoxy-4-((2-(N-methylmethanesulfonamido)-3-(trifluoromethyl)phenyl)amino)nicotinamide], the IC50 in test [1] and in test [2] was more than 10 µM throughout.

Consider `CONC(=O)c1cnc(Nc2ccc(F)cn2)cc1Nc1cccc(C(F)(F)F)c1N(C)S(C)(=O)=O` [Example 84, 6-((5-fluoropyridin-2-yl)amino)-N-methoxy-4-((2-(N-methylmethanesulfonamido)-3-(trifluoromethyl)phenyl)amino)nicotinamide], for which the IC50 in test [1] and in test [2] was more than 10 µM in each case.

Take `CONC(=O)c1cnc(NC(=O)C2CC2)cc1Nc1cccc(C2CC2)c1N(C)S(C)(=O)=O` [Example 85, 6-(cyclopropylcarboxamido)-4-((3-cyclopropyl-2-(N-methylmethanesulfonamido)phenyl)amino)-N-methoxy nicotinamide]: the IC50 in test [1] and in test [2] was more than 10 µM throughout.

On to `CONC(=O)c1cnc(Nc2cccc(F)n2)cc1Nc1cccc(C2CC2)c1N(C)S(C)(=O)=O` [Example 86], for which the IC50 in test [1] and in test [2] was more than 10 µM throughout.

Turning to `CONC(=O)c1cnc(NC(=O)C2CC2)cc1Nc1cccc(-c2cnn(C)c2)c1N(C)S(C)(=O)=O` [Example 87, 6-(cyclopropylcarboxamido)-N-methoxy-4-((3-(1-methyl-1H-pyrazol-4-yl)-2-(N-methylmethanesulfonamido)phenyl)amino)nicotinamide], the IC50 in test [1] and in test [2] was more than 10 µM each time.

For `CONC(=O)c1cnc(Nc2cccc(F)n2)cc1Nc1cccc(-c2cnn(C)c2)c1N(C)S(C)(=O)=O` [Example 88, 6-((6-fluoropyridin-2-yl)amino)-N-methoxy-4-((3-(1-methyl-1H-pyrazol-4-yl)-2-(N-methylmethanesulfonamido)phenyl)amino)nicotinamide], the IC50 in test [1] and in test [2] was more than 10 µM in each case.

Regarding `CONC(=O)c1cnc(NC(=O)C2CC2)cc1Nc1ccccc1S(C)(=O)=O` [Example 89], the IC50 in test [1] and in test [2] was more than 10 µM throughout.

Turning to `CN(c1ccccc1Nc1cc(NC(=O)C2CC2)ncc1C(=O)NOC(C)(C)C)S(C)(=O)=O` [Example 91, N-(t-butoxy)-6-(cyclopropylcarboxamido)-4-((2-(N-methylmethanesulfonamido)phenyl)amino)nicotinamide], the IC50 in test [1] and in test [2] was more than 10 µM in each case.

Consider `CONC(=O)c1cnc(Nc2ccc(C(F)(F)F)cn2)cc1Nc1ccccc1N(C)S(C)(=O)=O` [Example 92, N-methoxy-4-((2-(N-methylmethanesulfonamido)phenyl)amino)-6-((5-(trifluoromethyl)pyridin-2-yl)amino)nicotinamide], for which the IC50 in test [1] and in test [2] was more than 10 µM throughout.

For `CONC(=O)c1cnc(NC(=O)[C@H]2CC2(C)C)cc1Nc1ccc(C2CC2)cc1N(C)S(C)(=O)=O` [Example 94, (S)-4-((4-cyclopropyl-2-(N-methylmethanesulfonamido)phenyl)amino)-6-(2,2-dimethylcyclopropyl-1-carboxamido)-N-methoxy nicotinamide], the IC50 in test [1] and in test [2] was more than 10 µM in each case.

For `CCONC(=O)c1cnc(Nc2ccccn2)cc1Nc1cc(F)c(C2CC2)cc1N(C)S(C)(=O)=O` [Example 96, 4-((4-cyclopropyl-5-fluoro-2-(N-methylmethanesulfonamido)phenyl)amino)-N-ethoxy-6-(pyridin-2-ylamino)nicotinamide], the IC50 in test [1] and in test [2] was more than 10 µM throughout.

Take `CCONC(=O)c1cnc(Nc2cc(C)c(F)cn2)cc1Nc1cc(F)c(C2CC2)cc1N(C)S(C)(=O)=O` [Example 99, 4-((4-cyclopropyl-5-fluoro-2-(N-methylmethanesulfonamido)phenyl)amino)-N-ethoxy-6-((5-fluoro-4-methylpyridin-2-yl)amino)nicotinamide]: the IC50 in test [1] and in test [2] was more than 10 µM throughout.

On to `CONC(=O)c1cnc(Nc2ccc(C#N)cc2)cc1Nc1ccccc1N(C)S(C)(=O)=O` [Example 103, 6-((4-cyanophenyl)amino)-N-methoxy-4-((2-(N-methylmethanesulfonamido)phenyl)amino)nicotinamide], for which the IC50 in test [1] and in test [2] was more than 10 µM throughout.

Regarding `CONC(=O)c1cnc(Nc2ccc(F)cc2)cc1Nc1ccccc1N(C)S(C)(=O)=O` [Example 104, 6-((4-fluorophenyl)amino)-N-methoxy-4-((2-(N-methylmethanesulfonamido)phenyl)amino)nicotinamide], the IC50 in test [1] and in test [2] was more than 10 µM each time.

In the case of `CONC(=O)c1cnc(NC(=O)[C@H]2CC2(C)C)cc1Nc1ccccc1N(C)S(C)(=O)=O` [Example 105, (S)-6-(2,2-dimethylcyclopropyl-1-carboxamido)-N-methoxy-4-((2-(N-methylmethanesulfonamido)phenyl)amino)nicotinamide], the IC50 in test [1] and in test [2] was more than 10 µM each time.

For `CONC(=O)c1cnc(Nc2ccc(C)cn2)cc1Nc1ccc(C)cc1N(C)S(C)(=O)=O` [Example 107, N-methoxy-4-((4-methyl-2-(N-methylmethanesulfonamido)phenyl)amino)-6-((5-methylpyridin-2-yl)amino)nicotinamide], the IC50 in test [1] and in test [2] was more than 10 µM in each case.

Regarding `CCONC(=O)c1cnc(Nc2cccc(F)n2)cc1Nc1ccccc1NS(C)(=O)=O` [Example 117, N-ethoxy-6-((6-fluoropyridin-2-yl)amino)-4-((2-(methanesulfonamido)phenyl)amino)nicotinamide], the IC50 in test [1] and in test [2] was more than 10 µM each time.
